Where two headings read alike, the source gives them in different places. No end group written: not given here.
Target: T1, GPR103 E297^6.59A (Homo sapiens, UniProt Q96P65, E297A)
T1 construct: we used human full-length QRFPR-encoding plasmids; expressed in transfected cells; host or cells: HEK293 cells (HEK293A in the flow cytometry section), pCAGGS vector
T1 sequence (Q96P65 1-431 E297A): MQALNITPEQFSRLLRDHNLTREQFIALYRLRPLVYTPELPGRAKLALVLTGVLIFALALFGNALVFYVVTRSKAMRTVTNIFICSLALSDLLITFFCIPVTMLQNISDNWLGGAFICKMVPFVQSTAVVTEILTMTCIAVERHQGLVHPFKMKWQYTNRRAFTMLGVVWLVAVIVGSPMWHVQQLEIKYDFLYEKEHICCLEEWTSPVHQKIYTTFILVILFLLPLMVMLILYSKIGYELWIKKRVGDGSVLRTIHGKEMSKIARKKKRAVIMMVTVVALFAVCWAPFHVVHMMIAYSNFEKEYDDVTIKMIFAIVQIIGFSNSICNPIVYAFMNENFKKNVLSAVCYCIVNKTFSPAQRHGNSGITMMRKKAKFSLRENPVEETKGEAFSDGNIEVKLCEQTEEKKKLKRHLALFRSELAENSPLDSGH
Experiment: TGFα shedding assay; Exp. level >WT (1:1)
Assay type: cell-based
Experimental: For the TGFα shedding assay and the flow cytometry analysis, we used human full-length QRFPR-encoding plasmids. Specifically, GPR103 was N-terminally modified with an HA signal sequence followed by a FLAG epitope and then a flexible linker ([…]; the FLAG epitope is underlined) and inserted into the pCAGGS vector. Plasmid encoding GPR103 mutants were generated using Quickchange Site-Directed Mutagensis kit (Agilent).
The TGFα shedding assay was performed as described previously with minor modifications. Plasmid transfection was performed in a 6-well plate with a mixture of 500 ng (per well in a 6-well plate) AP-TGFα-encoding plasmid and 200 ng GPR103-encoding plasmid. After 1-day culture, the transfected cells were harvested by trypsinization, pelleted by centrifugation at 190 × g for 5 min, and washed once with 5 mM HEPES (pH 7.4)-containing Hank’s Balanced Salt Solution (HBSS). After centrifugation, the cells were resuspended in 8 mL of the HEPES-containing HBSS. The cell suspension was seeded in a 96-well culture plate (cell plate) at a volume of 90 μL (per well hereafter) and incubated in a 37 °C incubator with 5% CO2 for 30 min. […] After spinning the cell plates at 190 × g for 2 min, 80 μL of conditioned media was transferred to an empty 96-well plate (conditioned media (CM) plate). Then, 80 μL of AP reaction solution (10 mM p-nitrophenylphosphate (p-NPP), 120 mM Tris-HCl (pH 9.5), 40 mM NaCl, and 10 mM MgCl2) was dispensed into the cell plates and the CM plates. Absorbance at 405 nm of the plates was measured using a microplate reader (SpectraMax 340 PC384, Molecular Devices) before and after 1-h incubation at room temperature. Ligand-induced AP-TGFα release was calculated by subtracting spontaneous AP-TGFα release signal from ligand-induced AP-TGFα release signal. The AP-TGFα release signals were fitted to a four-parameter sigmoidal concentration–response curve, using the Prism 10 software (GraphPad Prism). For each replicate experiment, the pEC50 parameter (negative logarithmic values of EC50 values) of the individual GPR103 mutants were normalized to that of the wild-type GPR103 performed in parallel, and resulting ∆pEC50 values were used to denote ligand response activity of the mutants. […]
Exp. le vel: WT (1:5 0)Exp. le vel: WT (1:5 0)Exp. le vel: WT (1:5 0)Exp. le vel: WT (1:2 0)Exp. le vel: WT (1:2 0)Exp. le vel: WT (1:1 0) […]
L1 4N - t e r mA F2 5N - t e r mA I 2 6N - t e r mA Y 2 9N - t e r mA C 9 82 .5 7A T10 22 .6 1A Exp . l eve l: WT (1 :5)Exp . l evel : >WT (1 :1)Exp. le vel: WT (1:2 0)Exp. le vel: WT (1:2 0)Exp. le vel: WT (1:5 0)Exp . l eve l: WT (1 :1) […]
Exp. le vel: WT (1:1 0)Exp. le vel: WT (1:2 0) C 1 1 83 .2 5AExp. le vel: WT (1:5 0)Exp. le vel: WT (1:5 0)Exp. le vel: WT (1:2 0)Exp . l eve l: WT (1 :5) […]
Exp. le vel: WT (1:5 0)Exp. le vel: WT (1:1 0)Exp. le vel: WT (1:5 0) E203ECL2AExp . l evel : >WT (1 :1)Exp. le vel: WT (1:5 0)Exp. le vel: WT (1:5 0) […]
Exp . l eve l: WT (1 :1) F28Exp. le vel: WT (1:5 0) C 2 8 56 .4 7AExp. le vel: WT (1:2 0) WExp. le vel: WT (1:2 0) F28Exp. le vel: WT (1:5 0)Exp . l evel : >WT (1 :1) […]
Exp. le vel: WT (1:5 0)Exp. le vel: WT (1:5 0) C 3 2 77 .4 8AExp . l eve l: WT (1 :5)Exp . l evel : >WT (1 :1)Exp . l evel : >WT (1 :1) […]
Suppl eme nt ary Figure 1 | Mutational analysis of GPR103. […]
mutants. Data are presented as mean values ± SEM, normally n=3-5; dots), each performed in triplicate. b-d Cell-surface expression (b) and QRFP26-in-duced activation of GPR103 (c, d) were analyzed by the flow cytometry and the TGFα shedding assay, respectively. From the concentration–response curves (a), Emax (c) and ΔpEC50 (d) values relative to the wild type were calculated. Colors in the mutant bars indicate an expression level matching to that of titrated wild type. Statistical analyses were performed using the ordinary one-way ANOVA followed by Dunnett tests with the expression-matched […]

Emax (Exp. #1): 106.77 % WT
Emax (Exp. #2): 105.91 % WT
Emax (Exp. #3): 110.91 % WT
Emax (mean, read-out: Emax): 108%
EC50 (n = 3): 28.2 nM
Emax (n = 3, read-out: Emax): 112 ± 1.3%
Substance: TSGPLGNLAEELNGYSRKKGGFSFRF-NH2 [QRFP26]

— paper PMC11187126, “Structure and dynamics of the pyroglutamylated RF-amide peptide QRFP receptor GPR103” (Nature Communications, 2024)
